What all share (assay): growth of human tumour cells (NCI), 48 h
In assay [1] the test system is A498 renal.
Assay [2] relates to HL-60(TB) leukemia.
The test system of assay [3] is DU-145 prostate.
In assay [4] the test system is COLO 205 colon.
The test system of assay [5] is NCI-H23 lung.
The test system of assay [6] is HOP-62 NSCLC.
Assay [7] relates to RXF 393 renal.
In assay [8] the test system is NCI-H460 lung.
For assay [9], the system named is CCRF-CEM leukemia.
In assay [10] the test system is NCI-H226 lung.

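Protocol summary: plate cells (96-well), add compound at 5 concentrations, incubate 48 h, interpolate endpoints linearly. GI50: concentration for 50% inhibition of growth. TGI denotes the concentration required for complete inhibition of growth.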

In the case of `COc1ccc(C2CC(c3cccc(Nc4ccnc5cc(Cl)ccc45)c3)=NN2c2ccc(Cl)cc2)cc1` (stereo not drawn), the GI50 in [1] was 4.64 µM; in [2], 4.78 µM; in assay [3] it was 28.4 µM; in assay [4] it was 3.78 µM; in assay [5], 17.5 µM; in assay [6], 2.44 µM. Moreover, the GI50 in [7] was 17.5 µM; in assay [8], 3.04 µM; in assay [9], 1.84 µM; in assay [10] it was 14.2 µM. For the same molecule, the TGI in assay [1] is 53.9 µM; in assay [2], 26.9 µM; in [3], over 100 µM; in assay [4], 19.7 µM; in assay [5], over 100 µM; in assay [6] it was 25.6 µM. In addition, the TGI amounted to 74.8 µM in [7], 17.4 µM in assay [8], 43.4 µM in [9] and 94.8 µM in assay [10].

With `CCOC(=O)c1ccccc1NC(c1ccccc1)c1ccc2cccnc2c1O` (stereo not drawn), the GI50 in assay [1] was 1.15 µM; in assay [2], 1.97 µM; in assay [3], 5.94 µM; in assay [4] it was 3.33 µM; in assay [5], 4.22 µM; in assay [6], 3.31 µM. Further, the GI50 was 3.11 µM in assay [7], 2.82 µM in [8], 2.32 µM in assay [9] and 2.69 µM in [10]. For the same molecule, the TGI in [1] was 8.05 µM; in assay [2], 6.63 µM; in assay [3] it was over 100 µM; in [4], 24.1 µM; in assay [5] it was over 100 µM; in assay [6] it was over 100 µM. The TGI was 23.2 µM in [7], 78.4 µM in [8], over 100 µM in [9] and 13.9 µM in assay [10].

In the case of `N#CC1=C(N)Oc2c(ccc3ccccc23)C1c1ccccc1Cl` (stereo not drawn), the GI50 in [1] is 0.0845 µM; in [2], 0.27 µM; in [3], 0.432 µM; in assay [4], 0.362 µM; in assay [5], 0.474 µM; in [6], 0.374 µM. Moreover, the GI50 was 0.238 µM in [7], 0.335 µM in assay [8], 0.269 µM in assay [9] and 1.52 µM in assay [10]. Besides, the TGI in assay [1] was 0.496 µM; in assay [2], 0.776 µM; in [3], 12.3 µM; in assay [4], 12.9 µM; in assay [5], 17.3 µM; in assay [6], 17.3 µM. Also, the TGI in assay [7] came to 18.6 µM; in assay [8], 1.34 µM; in [9], 17.2 µM; in assay [10] it was 13.2 µM.

With `C[As](C)SCC(COC(=O)c1ccccc1)OC(=O)c1ccccc1` (stereo not drawn), the GI50 in assay [1] is 0.135 µM; in [2] it was 0.0161 µM; in [3] it was 0.473 µM; in [4], 0.0514 µM; in [5], 0.05 µM; in [6], 0.742 µM. For the same molecule, the GI50 in [7] was under 0.0169 µM; in assay [8] it was 2.21 µM; in assay [9], 0.0305 µM; in [10], 1.09 µM. Also, the TGI in assay [1] came out at 1.15 µM; in assay [2] it was 0.1 µM; in assay [3], 4.17 µM; in [4], 1.88 µM; in assay [5], 0.125 µM; in [6], 1.86 µM. Further, the TGI in assay [7] was 0.0881 µM; in assay [8], 12.1 µM; in assay [9] it was 0.759 µM; in [10] it was 3.75 µM.

In the case of `COc1c(C)cnc(Cn2cnc3c(Cl)nc(N)nc32)c1C`, the GI50 in assay [1] was 0.679 µM; in assay [2], 0.245 µM; in [3] it was 0.0701 µM; in assay [4] it was 0.218 µM; in [5] it was 0.262 µM; in assay [6], 0.405 µM. Further, the GI50 in assay [7] was 0.799 µM; in [8] it was 0.0974 µM; in assay [9], 0.097 µM; in assay [10] it was 0.594 µM. The TGI in assay [1] is 23.4 µM; in assay [3], over 100 µM; in assay [5], 19.8 µM; in assay [6] it was over 100 µM; in assay [7], over 100 µM; in assay [8], over 100 µM. In addition, the TGI in [9] and in [10] was over 100 µM each time.

As to `C/C=C\C(C)=C/C(C)C(=O)CC(O)CC1CC(=O)NC(=O)C1` (stereo not drawn), the TGI in assay [1], in [2], in assay [3], in assay [4], in assay [5] and in [6] was over 100 µM in each case. Further, the TGI in assay [7], in [8], in assay [9] and in [10] was over 100 µM throughout.

For the origin of these results see PubChem BioAssay (NCI).
